Laboratory results reported in patent US20140179779A1, “Deuterium Substituted Fumarate Derivatives” (Biogen IDEC MA Inc., priority 2012, published 2014).
Structures can show the parent of a compound that is named as a salt.

Columns and labels:
[1] = system: patients with relapsing-remitting MS (RRMS); conditions: compared with placebo after two years of treatment; cited from earlier work
Nrf2 [2] = experiment: Nrf2 activation in DLD-1 ARE-luciferase reporter cell line; type: cell-based, Human
Description: (§1) Human cancer cell line DLD-1 and breast cancer cell line MCF7 reporter stable cell lines were generated by transfection with a firefly luciferase reporter construct harboring the luciferase cDNA cloned downstream of eight catenated copies of the antioxidant response element ([…] ID NO.:1). See Wang et al. Cancer Res. 2006; 66:10983-94. To measure Nrf2 activation in the ARE-luciferase reporter cell lines, the cells were plated in 96-well plates at 20-50 k cells/well 24 hours prior to stimulation with the test compounds. […] The reporter cells were harvested 24 hours-48 hours after addition of the compounds and lysed for detection of luciferase activity. Luciferase activity in the lysates was monitored using the Bright-Glo Luciferase Assay System of Promega and Tecan Genios Pro plate reader. Luciferase induction in the compound-treated cells was calculated as fold change over the baseline activity detected in control cultures treated with DMSO-containing media.

Nrf2 [3] = experiment: Nrf2 activation in MCF-7 ARE-luciferase reporter cell line; type: cell-based, Human
Description: as §1

[4] = DLD-1/ARE-E2, 24 hr Stimulation
[5] = DLD-1/ARE-E2, 48 hr Stimulation
[6] = MCF-7/ARE-D3, 24 hr Stimulation
[7] = MCF-7/ARE-D3, 48 hr Stimulation

Row | SMILES | clinical relapses, accumulation of disability progression, and lesion number and volume [1] | Maximum Nrf2 Activation Fold Change (Nrf2 [2]; [4]) | concentration at maximum fold change (@ [uM]) (Nrf2 [2]; [4]) | Maximum Nrf2 Activation Fold Change (Nrf2 [2]; [5]) | concentration at maximum fold change (@ [uM]) (Nrf2 [2]; [5]) | Maximum Nrf2 Activation Fold Change (Nrf2 [3]; [6]) | concentration at maximum fold change (@ [uM]) (Nrf2 [3]; [6]) | Maximum Nrf2 Activation Fold Change (Nrf2 [3]; [7]) | concentration at maximum fold change (@ [uM]) (Nrf2 [3]; [7])
1 | COC(=O)/C=C/C(=O)OC [DMF, dimethyl fumarate] | significantly reduced | – | – | – | – | – | – | – | –
2 | O=C(O)/C=C/C(=O)O.[2H]C([2H])([2H])OC(=O)/C=C/C(=O)O [Example 2, (^2H3)methyl fumaric acid ester] | – | 6 fold | 1000 µM | 14 fold | 1000 µM | 55 fold | 1000 µM | 81 fold | 1000 µM
3 | COC(=O)/C=C/C(=O)O [MMF, monomethyl fumarate] | – | 5 fold | 1000 µM | 12 fold | 1000 µM | 75 fold | 1000 µM | 94 fold | 750 µM
